IC50 data for 27 molecules are collected here from US10709709B2, “Substituted carbonucleoside derivatives useful as anticancer agents” (Pfizer Inc., priority 2016, dated 2020).

Broadly, the IC50 is the midpoint of a concentration-inhibition curve. A low value points to greater potency in that assay.

Chain of PRMT5/MEP50 protein complex (O14744 other isoform, or with tags, fused parts or gaps): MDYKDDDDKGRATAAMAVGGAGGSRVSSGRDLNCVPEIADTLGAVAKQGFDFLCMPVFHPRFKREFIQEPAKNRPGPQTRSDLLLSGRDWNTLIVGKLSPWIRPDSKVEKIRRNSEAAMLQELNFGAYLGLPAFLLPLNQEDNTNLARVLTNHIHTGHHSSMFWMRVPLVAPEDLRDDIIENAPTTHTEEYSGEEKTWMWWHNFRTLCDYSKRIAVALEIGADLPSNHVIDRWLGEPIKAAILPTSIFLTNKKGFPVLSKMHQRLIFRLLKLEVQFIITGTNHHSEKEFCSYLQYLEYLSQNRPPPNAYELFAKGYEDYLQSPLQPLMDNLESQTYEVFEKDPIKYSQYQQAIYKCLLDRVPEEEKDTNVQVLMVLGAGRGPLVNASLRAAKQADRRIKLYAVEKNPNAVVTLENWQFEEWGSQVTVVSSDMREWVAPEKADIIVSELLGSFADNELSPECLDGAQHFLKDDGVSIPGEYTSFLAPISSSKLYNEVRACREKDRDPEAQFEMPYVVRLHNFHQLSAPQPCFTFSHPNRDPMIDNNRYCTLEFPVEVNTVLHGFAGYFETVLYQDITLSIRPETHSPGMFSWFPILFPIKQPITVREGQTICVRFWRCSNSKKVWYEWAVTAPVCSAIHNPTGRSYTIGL
Chain of PRMT5/MEP50 protein complex (Q9BQA1 whole entry partner): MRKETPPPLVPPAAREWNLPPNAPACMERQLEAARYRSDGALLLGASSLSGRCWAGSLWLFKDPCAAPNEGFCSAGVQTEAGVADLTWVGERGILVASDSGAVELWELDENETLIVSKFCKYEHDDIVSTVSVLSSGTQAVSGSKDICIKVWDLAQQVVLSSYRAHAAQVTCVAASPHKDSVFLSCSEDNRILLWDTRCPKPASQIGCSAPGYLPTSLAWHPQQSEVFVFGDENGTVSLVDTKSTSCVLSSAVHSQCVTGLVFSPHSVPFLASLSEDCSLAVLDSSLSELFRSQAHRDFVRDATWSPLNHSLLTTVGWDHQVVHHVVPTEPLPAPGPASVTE

The assay addresses PRMT5/MEP50 protein complex (Homo sapiens (Human), UniProt O14744). In words: PRMT5 biochemical assay (3H-SAM methylation of H4(1-21) peptide, filter plate scintillation). Particulars: 10 nM PRMT5/MEP50 complex, 200 nM H4(1-21) peptide, 1 uM SAM, 25 minute incubation at room temperature. As for the experimental part:
Biochemical Assay Methods
Compounds were solubilized in DMSO and serially diluted, using 3-fold dilutions, into 100% DMSO at a concentration 50-fold greater than the desired assay concentration. Following dilution, 1 ul was added to an empty 96-well microtiter plate. PRMT5/MEP50 protein complex was combined with H4(1-21) peptide ([…]) in PRMT5 assay buffer (50 mM Tris pH 8.5, 50 mM NaCl, 5 mM MgCl2, 1 mM EDTA, 1 mM TCEP) and 44 ul was added to the microtiter plate containing compound. S-Adenosyl-L-methionine (SAM) was prepared by combining ^3H labelled SAM with unlabelled SAM in PRMT5 assay buffer such that the final SAM concentration was 10 uM and the specific activity was 0.2 uCi/ul. The reaction was initiated by adding 5 ul of SAM stock to the microtiter plate. The final reaction conditions were 10 nM PRMT5/MEP50 complex, 200 nM peptide and 1 uM SAM. Following a 25 minute incubation at room temperature, the reaction was stopped with the addition of 100 uL of 20% TCA. The 3H-peptide product was captured using a 96-well filter plate (MSIPN4B, Millipore) and washed 5 times with PBS buffer. Scintillation fluid (100 ul) was added to the dried filter plate and counted in a liquid scintillation counter. IC50 values were determined by fitting the data to the standard 4-parameter dose response equation using Pfizer proprietary software.
Results for the biochemical assay of examples are summarized in Table 1, shown as IC50 values in μM.
`CN(c1ncnc(N)n1)[C@@H]1C[C@H]([C@@H](O)c2ccc(F)c(F)c2)[C@@H](O)[C@H]1O` [Example 38, (1R,2S,3R,5R)-3-[(4-amino-1,3,5-triazin-2-yl)(methyl)amino]-5-[(R)-(3,4-difluorophenyl)(hydroxy)methyl]cyclopentane-1,2-diol] yielded an IC50 of 15700 nM.
Regarding `Cc1nccc(N(C)[C@@H]2C[C@H]([C@@H](O)c3ccc(F)c(F)c3)[C@@H](O)[C@H]2O)n1` [Example 36, (1S,2R,3R,5R)-3-[(R)-(3,4-difluorophenyl)(hydroxy)methyl]-5-[methyl(2-methylpyrimidin-4-yl)amino] cyclopentane-1,2-diol], the IC50 is 2700 nM.
Molecule `Cc1ncnc2c1ccn2[C@@H]1C[C@H](Oc2cccc3c2[C@H](N)CC3)[C@@H](O)[C@H]1O` [Example 142, (1S,2S,3S,5R)-3-(((R)-3-amino-2,3-dihydro-1H-inden-4-yl)oxy)-5-(4-methyl-7H-pyrrolo[2,3-d]pyrimidin-7-yl)cyclopentane-1,2-diol] registered an IC50 of 11 nM.
Turning to `Nc1ncnc2c1ccn2[C@@H]1C[C@H]([C@H](O)c2ccc(Cl)c(F)c2)[C@@H](O)[C@H]1O` [Example 23, (1R,2S,3R,5R)-3-(4-amino-7H-pyrrolo[2,3-d]pyrimidin-7-yl)-5-((S)-(4-chloro-3-fluorophenyl)(hydroxy)methyl)cyclopentane-1,2-diol], half-maximal inhibition (IC50) was put at 572 nM.
On to `Cc1ncnc2c1ccn2[C@@H]1C[C@H](Oc2cc(F)c(F)cc2OCCN)[C@@H](O)[C@H]1O` [Example 152, (1S,2S,3S,5R)-3-(2-(2-aminoethoxy)-4,5-difluorophenoxy)-5-(4-methyl-7H-pyrrolo[2,3-d]pyrimidin-7-yl)cyclopentane-1,2-diol], for which inhibition was half-maximal at 8 nM (IC50).
Regarding `Cc1ncnc2c1ccn2[C@@H]1C[C@H]([C@H](O)c2cccc(Cl)c2)[C@@H](O)[C@H]1O` [Example 7], the IC50 stood at 120 nM.
With `Cc1cc2c(c(O[C@H]3C[C@@H](n4cc(F)c5cnc(C)nc54)[C@H](O)[C@@H]3O)c1)CNCC2` [Example 127, (1S,2S,3R,5S)-3-(5-fluoro-2-methyl-7H-pyrrolo[2,3-d]pyrimidin-7-yl)-5-((6-methyl-1,2,3,4-tetrahydroisoquinolin-8-yl)oxy)cyclopentane-1,2-diol], the IC50 came to 9 nM. Compared with the last molecule, the IC50 is about 13-fold lower.
For `Cc1ncnc2c1ccn2[C@H]1C[C@@H](Oc2ccc(F)cc2C#N)[C@H](O)[C@@H]1O` [Example 69, 2-(((1R,2R,3R,4S)-2,3-dihydroxy-4-(4-methyl-7H-pyrrolo[2,3-d]pyrimidin-7-yl)cyclopentyl)oxy)-5-fluorobenzonitrile], the IC50 is more than 200000 nM.
For `Cc1ncnc2c1ccn2[C@@H]1C[C@H](Oc2cc(OC(C)C)c(F)c3c2CNCC3)[C@@H](O)[C@H]1O` [Example 201, (1S,2S,3S,5R)-3-((5-fluoro-6-isopropoxy-1,2,3,4-tetrahydroisoquinolin-8-yl)oxy)-5-(4-methyl-7H-pyrrolo[2,3-d]pyrimidin-7-yl)cyclopentane-1,2-diol], half-maximal inhibition (IC50) required 310 nM. In other words, the sub-micromolar range.
`Cc1cc(F)ccc1O[C@H]1C[C@@H](n2ccc3c(C)ncnc32)[C@H](O)[C@@H]1O` [Example 75, (1S,2S,3S,5R)-3-(4-fluoro-2-methylphenoxy)-5-(4-methyl-7H-pyrrolo[2,3-d]pyrimidin-7-yl)cyclopentane-1,2-diol] displayed an IC50 of 37800 nM. Against the preceding molecule, the IC50 is about 120-fold higher.
In the case of `Cc1ncnc2c1ccn2[C@@H]1C[C@H](C(F)(CN)c2ccc(F)cc2)[C@@H](O)[C@H]1O` (stereo partly drawn) [Example 50, (1S,2R,3S,5R)-3-[2-amino-1-fluoro-1-(4-fluorophenyl)ethyl]-5-(4-methyl-7H-pyrrolo[2,3-d]pyrimidin-7-yl)cyclopentane-1,2-diol], inhibition was half-maximal at 18900 nM (IC50).
The same measure for `Cc1ncnc2c1ccn2[C@@H]1C[C@H]([C@@](C)(O)c2ccc(F)cc2)[C@@H](O)[C@H]1O` [Example 20, (1S,2R,3S,5R)-3-[(1R)-1-(4-fluorophenyl)-1-hydroxyethyl]-5-(4-methyl-7H-pyrrolo[2,3-d]pyrimidin-7-yl)cyclopentane-1,2-diol]: 17100 nM; for `Cc1ncc(O[C@H]2C[C@@H](n3ccc4c(C)ncnc43)[C@H](O)[C@@H]2O)c2c1CCNC2` [Example 96, (1S,2S,3S,5R)-3-((1-methyl-5,6,7,8-tetrahydro-2,6-naphthyridin-4-yl)oxy)-5-(4-methyl-7H-pyrrolo[2,3-d]pyrimidin-7-yl)cyclopentane-1,2-diol]: 19 nM.
The molecule `Nc1ncnc2c1c(F)cn2[C@@H]1C[C@H]([C@@H](O)c2ccc(F)cc2)[C@@H](O)[C@H]1O` [Example 26, (1R,2S,3R,5R)-3-(4-amino-5-fluoro-7H-pyrrolo[2,3-d]pyrimidin-7-yl)-5-[(R)-(4-fluorophenyl)(hydroxy)methyl]cyclopentane-1,2-diol] came in with an IC50 of 704 nM.
The molecule `Cc1ncnc2c1ccn2[C@@H]1C[C@H]([C@@H](CN)c2ccc(F)cc2)[C@@H](O)[C@H]1O` [Example 52, (1S,2R,3R,5R)-3-[(1R)-2-amino-1-(4-fluorophenyl)ethyl]-5-(4-methyl-7H-pyrrolo[2,3-d]pyrimidin-7-yl)cyclopentane-1,2-diol] gave an IC50 of 906 nM.
`Cc1ncnc2c1ccn2[C@@H]1C[C@H](Oc2cc(-c3cc[nH]n3)cc3c2CNCC3)[C@@H](O)[C@H]1O` [Example 171, (1S,2S,3S,5R)-3-((6-(1H-pyrazol-3-yl)-1,2,3,4-tetrahydroisoquinolin-8-yl)oxy)-5-(4-methyl-7H-pyrrolo[2,3-d]pyrimidin-7-yl)cyclopentane-1,2-diol] had an IC50 of 14 nM.
Then `Cc1ncnc2c1ccn2[C@@H]1C[C@H](C(F)c2ccc(F)cc2)[C@@H](O)[C@H]1O` (single isomer, unassigned) [Example 21], with 217 nM.
The same measure for `Cc1ncnc2c1ccn2[C@@H]1C[C@H](Oc2cc(Cl)c(Cl)cc2OCCN)[C@@H](O)[C@H]1O` [Example 151, (1S,2S,3S,5R)-3-(2-(2-aminoethoxy)-4,5-dichlorophenoxy)-5-(4-methyl-7H-pyrrolo[2,3-d]pyrimidin-7-yl)cyclopentane-1,2-diol]: 78 nM; for `Cc1ncnc2c1ccn2[C@@H]1C[C@H](Oc2nccc3c2CNCC3)[C@@H](O)[C@H]1O` [Example 157, (1S,2S,3R,5S)-3-(4-methyl-7H-pyrrolo[2,3-d]pyrimidin-7-yl)-5-((5,6,7,8-tetrahydro-2,7-naphthyridin-1-yl)oxy)cyclopentane-1,2-diol]: 4 nM.
Molecule `CN(c1ncnc(N)n1)[C@@H]1C[C@H]([C@H](O)c2ccc(F)c(F)c2)[C@@H](O)[C@H]1O` [Example 37, (1R,2S,3R,5R)-3-[(4-amino-1,3,5-triazin-2-yl)(methyl)amino]-5-[(S)-(3,4-difluorophenyl) (hydroxy)methyl]cyclopentane-1,2-diol] returned an IC50 of 266 nM.
For `Cc1ncnc2c1ccn2[C@@H]1C[C@H](Oc2ccc(F)cc2[C@@H](C)N)[C@@H](O)[C@H]1O` [Example 137, (1S,2S,3S,5R)-3-(2-((R)-1-aminoethyl)-4-fluorophenoxy)-5-(4-methyl-7H-pyrrolo[2,3-d]pyrimidin-7-yl)cyclopentane-1,2-diol], the midpoint of inhibition, the IC50, lay at 123 nM.
As to `Cc1nc(N)nc(N(C)[C@@H]2C[C@H]([C@H](O)c3ccc(F)c(F)c3)[C@@H](O)[C@H]2O)n1` [Example 41, (1R,2S,3R,5R)-3-[(4-amino-6-methyl-1,3,5-triazin-2-yl)(methyl)amino]-5-[(S)-(3,4-difluorophenyl) (hydroxy)methyl]cyclopentane-1,2-diol], it took 46 nM to reach half-maximal inhibition (IC50).
Then `Cc1ncnc2c1ccn2C1C[C@H](Oc2cccc3c2CNC3)[C@@H](O)[C@H]1O` (stereo partly drawn) [Example 79, (1S,2S,3S,5R)-3-(2,3-dihydro-1H-isoindol-4-yloxy)-5-(4-methyl-7H-pyrrolo[2;3-d]pyrimidin-7-yl)cyclopentane-1,2-diol], with 83 nM.
Consider `CNCc1cc(F)ccc1O[C@H]1C[C@@H](n2ccc3c(C)ncnc32)[C@H](O)[C@@H]1O` [Example 72, (1S,2S,3S,5R)-3-(4-fluoro-2-((methylamino)methyl)phenoxy)-5-(4-methyl-7H-pyrrolo[2,3-d]pyrimidin-7-yl)cyclopentane-1,2-diol], for which the 50% inhibitory concentration (IC50) came out at 22 nM.
With `Cc1ncnc2c1ccn2[C@@H]1C[C@H](Oc2ccc(F)c(F)c2CN)[C@@H](O)[C@H]1O` [Example 145, (1S,2S,3S,5R)-3-(2-(aminomethyl)-3,4-difluorophenoxy)-5-(4-methyl-7H-pyrrolo[2,3-d]pyrimidin-7-yl)cyclopentane-1,2-diol], the IC50 was determined as 11 nM.
`N#Cc1cccc2c(N[C@@H]3C[C@H](C(O)c4ccc(F)c(F)c4)[C@@H](O)[C@H]3O)ncnc12` (single isomer, unassigned) [Example 29, 4-({(1R;2S;3R;4R)-4-[(3;4-difluorophenyl)(hydroxy)methyl]-2;3-dihydroxycyclopentyl}amino)quinazoline-8-carbonitrile] returned a half-inhibitory concentration (IC50) of more than 200000 nM.
For the molecule `Cc1nccc(O[C@@H]2C[C@H](Oc3cccc4c3CNCC4)[C@@H](O)[C@H]2O)n1` [Example 158, (1S,2R,3R,5S)-3-((2-methylpyrimidin-4-yl)oxy)-5-((1,2,3,4-tetrahydroisoquinolin-8-yl)oxy)cyclopentane-1,2-diol], the IC50 was more than 200000 nM.
